From patent publication US20200069644A1, “NOVEL USE OF A FORMYL PEPTIDE RECEPTOR 2/ LIPOXIN A4 RECEPTOR (FPR2/ALX) AGONIST FOR TREATMENT OF HEART FAILURE” (BRISTOL- MYERS SQUIBB COMPANY, priority 2017, published 2020)

Experiments:
[1] = system: Mouse peritoneal macrophages; test: Enhancement of phagocytosis of FITC zymosan; type: cell-based; conditions: Peritoneal macrophage; mouse peritoneal macrophages elicited with 1% Biogel; read-out: EC50, enhancement of phagocytosis of fluorescently labeled zymosan
Description: Enhancement of phagocytosis Macrophages were elicited to the peritoneum of five C57BL6 mice by peritoneal injection of 1 mL of 1% Biogel in PBS (−/−) 4 days prior to harvest. Peritoneal exudates are harvested, combined and then filtered to remove Biogel beads. First, through a 70 um cell strainer followed by successively filtering through two 40 um cell strainers. The exudate is diluted with 1×PBS (−/−) to 50 mL and centrifuged at 300×g for 10 minutes at 4° C. The cell pellet is gently resuspended in 20-30 mL 1×PBS(+/+) and cells are counted using the Nexelcom Cellometer counter. Cell concentration is adjusted to 1,250,000 cells/mL in 1×PBS (+/+). 100 μL (125 k) cells are placed into each well of a 96-well Costar 3904 plate. The plates are centrifuged at 150×g for 30 seconds to promote adherence. […] Fluorescence signal from non-ingested Zymosan particles is quenched with 150 uL ice-cold 1:15 diluted Trypan Blue solution for 2 minutes and then aspirated to remove. Lastly, the plate is read on a SpectraMAX Gemini EM fluorescence plate reader in 150 ul of 1:50 diluted Trypan Blue. Plate Reader Settings=Bottom Read: Excitation 493 nm: Emission 525 nm: Cutoff 515 nm: Automix Off: Calibrate On: PMT=Auto: Column Priority: Reads/Well=20. […]

[2] = system: myocardial infarction in rats; test: Rat model of permanent coronary artery occlusion, 6 weeks; type: in vivo
Description: In a second model of myocardial infarction, permanent coronary artery occlusion was carried out in rats using a ligature placed around the left anterior descending artery to induce myocardial infarction. Treatment with orally-administered Compound 1 (0.01, 0.1, 1, and 10 mg/kg, QD) or dosing solution without compound (QD, referred to as vehicle) was initiated 48 hours following myocardial infarction. Rats subjected to thoracotomy but not infarcted were included as surgical “sham” controls. Rats were evaluated 6 weeks following myocardial infarction to assess structure/function relationships. Hearts were removed from rats for histological processing to measure infarct wall thickness and collagen composition. Echocardiography was carried out to evaluate cardiac function.
The effects of Compound 1 on left ventricle and infarct scar remodeling were evaluated in a rat model of permanent coronary artery occlusion. […] In addition, the effect of Compound 1 on cardiac function was measured by echocardiography to assess structure/function relationships. The structure of the myocardial wall was measured histologically. […]
Echocardiography was used to measure cardiac function at the end of the treatment phase. The fraction of blood pumped out of the left ventricle per contraction cycle (i.e., ejection fraction) was determined using M-mode echocardiography. […]

Rat FPR1 = molecular target: T1, Rat FPR1 (Rattus norvegicus, UniProt D4A7Q2); test: cAMP inhibition, rat FPR1 CHO cells; type: cell-based
T1 construct: expressed in transfected cells; host or cells: CHO
T1 sequence (D4A7Q2 1-355): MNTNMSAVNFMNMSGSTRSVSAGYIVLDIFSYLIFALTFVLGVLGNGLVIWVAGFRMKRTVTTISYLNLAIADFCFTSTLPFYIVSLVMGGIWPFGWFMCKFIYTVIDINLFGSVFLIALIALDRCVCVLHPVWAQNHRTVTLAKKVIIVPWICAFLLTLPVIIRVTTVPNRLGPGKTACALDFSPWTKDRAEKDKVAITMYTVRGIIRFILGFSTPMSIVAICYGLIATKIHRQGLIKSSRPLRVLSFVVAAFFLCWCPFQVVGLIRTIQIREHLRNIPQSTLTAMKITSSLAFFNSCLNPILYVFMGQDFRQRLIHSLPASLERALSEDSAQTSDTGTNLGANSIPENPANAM

[3] = system: myocardial infarction in mice; test: Mouse model of permanent coronary artery occlusion, 28 days; type: in vivo
Description: Permanent coronary artery occlusion was carried out in mice using a ligature placed around the left anterior descending artery to induce myocardial infarction. Treatment with orally-administered Compound 1 (0.3 and 3 mg/kg; QD) or dosing solution without compound (QD, referred to as vehicle) was initiated 24 hours following myocardial infarction. Mice subjected to thoracotomy but not infarcted were included as surgical “sham” controls. Mice were evaluated 28 days following myocardial infarction to assess structure/function relationships. Hearts were removed from mice for histological processing to measure left ventricular dimensions, infarct areas and infarct collagen composition.
The effect of Compound 1 on left ventricle and infarct scar remodeling was evaluated in a mouse model of permanent coronary artery occlusion. MI was created by permanently ligating the left anterior descending artery with a surgical suture. Treatments (QD, PO) were initiated 24 hours after MI and were continued for 28 days. Treatments consisted of suspension vehicle and Compound 1 at 0.3 mg/kg and 3 mg/kg. A cohort of mice that were subjected to the procedure but were not infarcted were included as a “sham operated” surgical control group. At the end of 28 days of treatment, the hearts were removed for histological evaluation of left ventricle structure and scar structure.
This is a model of ischemic heart disease. Infarct size was measured within the left ventricle (LV) and reported as a percentage of the total left ventricle cross sectional area.

COc1cc(F)c([C@@H]2CNC(=O)[C@H]2NC(=O)Nc2ccccc2)c(F)c1 [Compound 1, 1-((3S,4R)-4-(2,6-difluoro-4-methoxyphenyl)-2-oxopyrrolidin-3-yl)-3-phenylurea]
EC50 [1]: 2 nM
contralateral wall thickness ([2]; 0.01-10 mg/kg, between treatment groups or sham): No changes
transmural infarct wall thickness, increase relative to vehicle ([2]; 10 mg/kg PO QD, started 48 h after MI, P<0.01): 96%
EC50 (Rat FPR1): 720 nM
infarct wall thickness, % of mean thickness of sham ([3]; 0.3 mg/kg PO QD, 28 days): 61%
reduction of LV chamber area vs. vehicle ([3]; 0.3 mg/kg PO QD, 28 days): 26%
infarct wall thickness, % of mean thickness of sham ([3]; 3 mg/kg PO QD, 28 days): 67%
reduction of LV chamber area vs. vehicle ([3]; 3 mg/kg PO QD, 28 days (trend)): 24%
reduction in LV anterior wall infarct size vs. vehicle ([3]; 3 mg/kg PO QD, 28 days, started 24 h after MI, P<0.01): 55%
wall thickness difference vs. vehicle ([3]; higher dose (3 mg/kg) PO QD, 28 days, P<0.05): 59%
